pIC50, pKi: −log10 of the molar value. Where only a bound is given, the exact number is not on record here.

The pIC50 is the IC50 on a negative log10 scale, so that one unit is a factor of ten. A lower pIC50 goes with a large IC50. In general, pKi refers to −log10 of the Ki, conventionally taken in molar units.

The assay has as its target T1, 3-phosphoshikimate 1-carboxyvinyltransferase (Escherichia coli K-12, UniProt P0A6D3).
T1 sequence (P0A6D3 whole entry): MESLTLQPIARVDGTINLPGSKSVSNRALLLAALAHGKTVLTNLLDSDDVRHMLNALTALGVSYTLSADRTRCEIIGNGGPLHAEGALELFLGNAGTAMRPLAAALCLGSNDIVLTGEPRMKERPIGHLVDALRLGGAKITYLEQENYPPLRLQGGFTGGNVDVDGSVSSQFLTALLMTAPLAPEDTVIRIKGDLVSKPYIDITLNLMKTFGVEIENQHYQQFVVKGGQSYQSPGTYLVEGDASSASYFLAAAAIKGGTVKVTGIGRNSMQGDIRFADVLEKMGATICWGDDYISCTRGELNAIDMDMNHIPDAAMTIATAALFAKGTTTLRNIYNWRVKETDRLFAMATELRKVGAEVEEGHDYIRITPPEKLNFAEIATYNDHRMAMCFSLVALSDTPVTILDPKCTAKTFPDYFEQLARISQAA
As to the kind of experiment: Inhibition of Escherichia coli EPSP synthase.

In turn, `O=C(O)COc1cc(OC(C(=O)O)C(=O)O)cc(C(=O)O)c1` showed a pIC50 of 2.70.

The compound `O=C(O)COc1cc(CP(=O)(O)O)cc(C(=O)O)c1` gave a pIC50 of 2.00.

`O=C(O)c1cc(OC(C(=O)O)P(=O)(O)O)cc(OP(=O)(O)O)c1` (stereo not drawn): the pIC50 is 4.70 and the pKi is 6.80.

Consider `O=C(O)c1cc(OP(=O)(O)O)cc(OP(=O)(O)O)c1`, for which the pIC50 is 4.07. Besides, for the setting “read-out: Ki app”, the pKi is 6.11.

In turn, `O=C(O)c1cc(OC(C(=O)O)C(=O)O)cc(OC(C(=O)O)C(=O)O)c1` showed a pIC50 of 3.68. Besides, for the setting “read-out: Ki app”, the pKi is 5.60.

`O=C(O)COc1cc(C(=O)O)cc(C(O)P(=O)(O)O)c1` (stereo not drawn) showed a pIC50 of 2.52.

Turning to `O=C(O)COc1cc(C(=O)O)cc(P(=O)(O)O)c1`, the pIC50 is 2.00.

For `O=C(O)c1cc(O)cc(OP(=O)(O)O)c1`, the pIC50 is 2.10.

In turn, `O=C(O)CO[C@@H]1CC(C(=O)O)=C[C@@H](OP(=O)(O)O)[C@@H]1O` gave a pIC50 of 4.00 and a pKi of 5.82.

Take `O=C(O)c1cc(O)cc(C(O)P(=O)(O)O)c1` (stereo not drawn): the pIC50 was 2.00.

Turning to `O=C(O)c1cc(CP(=O)(O)O)cc(CP(=O)(O)O)c1`, the pIC50 was 2.52. This pIC50 is 0.52 log units higher than that of the compound before.

With `O=C(O)c1cc(O)cc(CP(=O)(O)O)c1`, the pIC50 is less than 1.10.

On to `O=C(O)c1cc(O)cc(OC(C(=O)O)C(=O)O)c1`, for which the pIC50 was 2.00.

`O=C(O)COc1cc(OP(=O)(O)O)cc(C(=O)O)c1` showed a pIC50 of 2.85.
